Data set [1] in a line: Steady-state pharmacokinetics of LNG and EE from day 21 of a COC cycle. The following applies: for AUClast Change (%) / AUCτ Change (%) / CL Change (%) / Cmax Change (%) / Cmin Change (%) / T1/2 Change (%) / Tmax Change (%) / Vss Change (%): Ritonavir arm vs control arm; for concentration at 24 h: oral, concentration 24 h after the last dose; for concentration at 24 h / Cmax / AUC: mean±SD; for Cmax: last dose of the cycle; for AUC: LNG AUCτ, AUC 24 h of the last dose of the 21-day cycle. The format is in vivo, HIV-positive women.

The conditions of data set [2]: cited from earlier work; for EE AUC / LNG AUC: COC EE 30 mcg / norgestrel 300 mcg.
The conditions of data set [3]: cited from earlier work.
The mark [4] stands for this setting: female, human, serum, po, T1/2, Ritonavir arm, half-life by NCA, median.
Setting [5] is: COC users taking protease inhibitors.

Read-outs that look alike come from different tables or passages of the source.

Take `C#C[C@]1(O)CC[C@H]2[C@@H]3CCc4cc(O)ccc4[C@H]3CC[C@@]21C` [EE, ethinyl estradiol]: in data set [1], the “AUClast Change (%)” value is given as 18.2%, the “AUCτ Change (%)” value was 21.8%, the “CL Change (%)” value is −15.1% and the “Cmax Change (%)” value is recorded as 33.7%. For the same compound, in data set [1], the “Cmin Change (%)” value stood at 8.5%, the “T1/2 Change (%)” value stood at 10.5%, the “Tmax Change (%)” value was 0.0% and the “Vss Change (%)” value is on record as −24.1%. Also, the Tmax in data set [1] (Ritonavir arm, median (95% Confidence interval)) is 1.0 (1.0,2.9) h. In data set [1] (Ritonavir arm, volume at steady state by NCA, median (95% Confidence interval)), the Vss is reported as 475 (370,671) L. Further, the “EE pharmacokinetic profiles, ritonavir vs control” value in data set [1] (comparison between groups) was “not different between groups”. This compound also returned a concentration at 24 h in data set [1] (female, human, serum, EE Cmin, Control arm (n=10)) of 0.0492 ± 0.0141 ng/mL. In data set [1] (female, human, serum, EE Cmin, Ritonavir arm), this compound yielded a concentration at 24 h of 0.0533 ± 0.0147 ng/mL. The Tmax in data set [1] (female, human, serum, po) amounted to 1 h. The compound further had a Cmax in data set [1] (female, human, serum, po, EE Cmax, Control arm (n=10)) of 0.163 ± 0.0438 ng/mL. This compound showed a half-life in data set [1] (female, human, serum, po, T1/2, Control arm (n=10), half-life by NCA, median) of 28.4 h. In data set [1] (setting [4]), this compound showed a half-life of 31.3 h. Further, the “EE AUC” value in data set [2] (women not taking nevirapine) is 1457 ng·mL/h. Moreover, in data set [2] (women taking nevirapine), the “EE AUC” value was 1384 ng·mL/h.
As for `C#C[C@]1(O)CC[C@H]2[C@@H]3CCC4=CC(=O)CC[C@@H]4[C@H]3CC[C@@]21CC` [LNG, levonorgestrel], in data set [1], the “AUClast Change (%)” value was found to be 32.0%, the “AUCτ Change (%)” value was found to be 32.6%, the “CL Change (%)” value was −16.7% and the “Cmax Change (%)” value is listed as 27.0%. Further, in data set [1], the “Cmin Change (%)” value is 34.4%, the “T1/2 Change (%)” value was determined as 8.2%, the “Tmax Change (%)” value was 33.3% and the “Vss Change (%)” value is given as −13.2%. This compound gave a half-life in data set [1] (female, human, in vivo, po) of 42.6 h. In data set [1] (female, human, serum, LNG Cmin, Control arm (n=10)), this compound had a concentration at 24 h of 3.7 ± 1.29 ng/mL. In data set [1] (female, human, serum, LNG Cmin, Ritonavir arm (n=5)), this compound gave a concentration at 24 h of 4.97 ± 1.15 ng/mL. Also, the AUC in data set [1] (female, human, serum, po, Control arm (n=10)) is 113 ± 37 ng·h/mL. Further, the AUC in data set [1] (female, human, serum, po, Ritonavir arm (n=5)) is 150 ± 28 ng·h/mL. In data set [1] (female, human, serum, po, LNG Cmax, Control arm (n=10)), the peak level (Cmax) was 7.62 ± 2.29 ng/mL. Also, in data set [1] (female, human, serum, po, LNG Cmax, Ritonavir arm (n=5)), the Cmax worked out at 9.68 ± 1.81 ng/mL. Further, the half-life in data set [1] (setting [4]) was 46.2 h. For the same compound, the “increase in LNG exposure” value in data set [1] (women on ritonavir vs control) is recorded as “approximately 30%”. Moreover, the “LNG AUC” value in data set [2] (women not taking nevirapine) is 114 ng·mL/h. Further, the “LNG AUC” value in data set [2] (women taking nevirapine) is 147 ng·mL/h.
With `C#C[C@]1(O)CC[C@H]2[C@@H]3CCC4=CC(=O)CC[C@@H]4[C@H]3CC[C@@]21C` [norethindrone], in data set [3] (setting [5]), the “decrease in norethindrone AUC” value is on record as 18% and the “increase in AUC of norethindrone” value is 110%. The “increase in norethindrone AUC” value in data set [3] (norethindrone progestin-only pill, women using ritonavir) is on record as 50%.
Consider `C#CC1(O)CC[C@H]2[C@@H]3CCC4=CC(=O)CC[C@@H]4[C@H]3CC[C@@]21CC` (stereo partly drawn) [norgestrel], for which the “increase in norgestrel AUC” value in data set [2] (women taking ARV vs not taking ARV medication) is “approximately 30%”.

(Values after article PMC6778019 (Contraception, 2019).)
